# Data: patent publication US20040023853A1, “Antagonistic peptides of prostaglandin E2 receptor subtype EP4” (priority 2002, published 2004)
# Non-standard residues stand in square brackets, D forms with d. Residues, ends and D or L forms follow the SMILES beside them. Bip = N[C@@H](Cc1ccc(-c2ccccc2)cc1)C(=O)O; dBip = N[C@H](Cc1ccc(-c2ccccc2)cc1)C(=O)O
# Test system: not listed separately
# Test: Solubility of the peptides in water
# Format: physicochemical
# Conditions: not given
# Protocol: Several peptides, based on the structure of 213.15 (SEQ ID NO: 1), were synthesized using F-moc chemistry and the solid phase Merrifield peptide method. The purity of the trifluoroacetate salts of these peptides was assessed by HPLC and mass spectroscopy. The general synthesis methods will be better understood by referring to the following treatises: “Solid phase peptide synthesis”, Stewart & Young, W. H. Freeman Co. San Francisco, 1969; “The proteins”, Erikson and Merrifield, Vol. 2. (ed. Neurath & Hill), Academic Press, New York. 1976.
row,solubility (in words),Structure (SMILES)
1,poor solubility,"CC(C)C[C@@H](NC(=O)[C@@H](C)NC(=O)[C@@H](CCC(=O)O)NC(=O)[C@@H](Cc1ccc(O)cc1)NC(=O)[C@@H](CCC(=O)O)NC(=O)[C@@H](CO)NC(=O)[C@H](NC(=O)[C@H](N)Cc1ccc(-c2ccccc2)cc1)[C@H](C)O)C(=O)O [Peptide 213.15, (bip)tseyeal] (H-[dBip][dT][dS][dE][dY][dE][dA][dL]-OH; N-terminus and C-terminus assumed)"

# Same assay, conditions: determined in water
row,Structure (SMILES),solubility [mg/mL]
1,"CC(C)C[C@@H](NC(=O)[C@@H](C)NC(=O)[C@@H](CCC(=O)O)NC(=O)[C@@H](Cc1ccc(O)cc1)NC(=O)[C@@H](CCC(=O)O)NC(=O)[C@@H](CO)NC(=O)[C@H](NC(=O)[C@H](N)Cc1ccc(-c2ccccc2)cc1)[C@H](C)O)C(=O)N[C@@H](CCCCN)C(=O)O [Peptide 213.19, (bip)tseyealK] (H-[dBip][dT][dS][dE][dY][dE][dA][dL]K-OH; N-terminus and C-terminus assumed)",2.8
2,"CC(C)C[C@@H](NC(=O)[C@@H](CO)NC(=O)[C@@H](CCC(=O)O)NC(=O)[C@@H](Cc1ccc(O)cc1)NC(=O)[C@@H](CCC(=O)O)NC(=O)[C@@H](CO)NC(=O)[C@H](NC(=O)[C@H](N)Cc1ccc(-c2ccccc2)cc1)[C@H](C)O)C(=O)N[C@@H](CCCCN)C(=O)N[C@@H](CCCCN)C(=O)O [Peptide 213.24, (bip)tseyeslKK] (H-[dBip][dT][dS][dE][dY][dE][dS][dL]KK-OH; N-terminus and C-terminus assumed)",23.5
3,"C[C@H](O)[C@@H](NC(=O)[C@H](N)Cc1ccc(-c2ccccc2)cc1)C(=O)N[C@H](CO)C(=O)N[C@H](CCC(=O)O)C(=O)N[C@H](Cc1ccc(O)cc1)C(=O)N[C@H](CCC(=O)O)C(=O)N[C@H](C)C(=O)N[C@@H](CCCCN)C(=O)O [Peptide 213.25, (bip)tseyeaK] (H-[dBip][dT][dS][dE][dY][dE][dA]K-OH; N-terminus and C-terminus assumed)",6
4,"CC(C)C[C@H](NC(=O)[C@@H](C)NC(=O)[C@@H](CCC(=O)O)NC(=O)[C@@H](Cc1ccc(O)cc1)NC(=O)[C@@H](CCC(=O)O)NC(=O)[C@@H](CO)NC(=O)[C@H](NC(=O)[C@H](N)Cc1ccc(-c2ccccc2)cc1)[C@H](C)O)C(=O)N[C@@H](CCCCN)C(=O)N[C@@H](CCCCN)C(=O)O [Peptide 213.28, (bip)tseyeaLKK] (H-[dBip][dT][dS][dE][dY][dE][dA]LKK-OH; N-terminus and C-terminus assumed)",20
5,"CC(C)C[C@@H](NC(=O)[C@@H](C)NC(=O)[C@@H](CCC(=O)O)NC(=O)[C@@H](Cc1ccc(O)cc1)NC(=O)[C@@H](CCC(=O)O)NC(=O)[C@@H](CO)NC(=O)[C@H](NC(=O)[C@H](N)Cc1ccc(-c2ccccc2)cc1)[C@H](C)O)C(=O)NCC(=O)N[C@@H](CCCCN)C(=O)N[C@@H](CCCCN)C(=O)O [Peptide 213.30, (bip)tseyealGKK] (H-[dBip][dT][dS][dE][dY][dE][dA][dL]GKK-OH; N-terminus and C-terminus assumed)",16

# Other lines, results leading:
row,solubility [mg/mL],Structure (SMILES)
1,0.2,"CC(C)C[C@@H](NC(=O)[C@@H](C)NC(=O)[C@@H](CCC(=O)O)NC(=O)[C@@H](Cc1ccc(O)cc1)NC(=O)[C@@H](CCC(=O)O)NC(=O)[C@@H](CO)NC(=O)[C@H](NC(=O)[C@H](N)Cc1ccc(-c2ccccc2)cc1)[C@H](C)O)C(=O)O [Peptide 213.15, (bip)tseyeal] (H-[dBip][dT][dS][dE][dY][dE][dA][dL]-OH; N-terminus and C-terminus assumed)"
2,1.15,"CC(C)C[C@@H](NC(=O)CNC(=O)[C@@H](CCC(=O)O)NC(=O)[C@@H](Cc1ccc(O)cc1)NC(=O)[C@@H](CCC(=O)O)NC(=O)[C@@H](CO)NC(=O)[C@H](NC(=O)[C@H](N)Cc1ccc(-c2ccccc2)cc1)[C@H](C)O)C(=O)N[C@@H](CCCCN)C(=O)O [Peptide 213.20, (bip)tseyeglK] (H-[dBip][dT][dS][dE][dY][dE]G[dL]K-OH; N-terminus and C-terminus assumed)"
3,24.5,"CC(C)C[C@@H](NC(=O)[C@@H](C)NC(=O)[C@@H](CCC(=O)O)NC(=O)[C@@H](Cc1ccc(O)cc1)NC(=O)[C@@H](CCC(=O)O)NC(=O)[C@@H](CO)NC(=O)[C@H](NC(=O)[C@H](N)Cc1ccc(-c2ccccc2)cc1)[C@H](C)O)C(=O)N[C@@H](CCCCN)C(=O)N[C@@H](CCCCN)C(=O)O [Peptide 213.21, (bip)tseyealKK] (H-[dBip][dT][dS][dE][dY][dE][dA][dL]KK-OH; N-terminus and C-terminus assumed)"
4,24.5,"CC(C)C[C@@H](NC(=O)CNC(=O)[C@@H](CCC(=O)O)NC(=O)[C@@H](Cc1ccc(O)cc1)NC(=O)[C@@H](CCC(=O)O)NC(=O)[C@@H](CO)NC(=O)[C@H](NC(=O)[C@H](N)Cc1ccc(-c2ccccc2)cc1)[C@H](C)O)C(=O)N[C@@H](CCCCN)C(=O)N[C@@H](CCCCN)C(=O)O [Peptide 213.22, (bip)tseyeglKK] (H-[dBip][dT][dS][dE][dY][dE]G[dL]KK-OH; N-terminus and C-terminus assumed)"
5,13,"CC(C)C[C@@H](NC(=O)[C@@H](CO)NC(=O)[C@@H](CCC(=O)O)NC(=O)[C@@H](Cc1ccc(O)cc1)NC(=O)[C@@H](CCC(=O)O)NC(=O)[C@@H](CO)NC(=O)[C@H](NC(=O)[C@H](N)Cc1ccc(-c2ccccc2)cc1)[C@H](C)O)C(=O)N[C@@H](CCCCN)C(=O)O [Peptide 213.23, (bip)tseyeslK] (H-[dBip][dT][dS][dE][dY][dE][dS][dL]K-OH; N-terminus and C-terminus assumed)"
6,8,"C[C@H](O)[C@@H](NC(=O)[C@H](N)Cc1ccc(-c2ccccc2)cc1)C(=O)N[C@H](CO)C(=O)N[C@H](CCC(=O)O)C(=O)N[C@H](Cc1ccc(O)cc1)C(=O)N[C@H](CCC(=O)O)C(=O)N[C@H](CO)C(=O)N[C@@H](CCCCN)C(=O)O [Peptide 213.26, (bip)tseyesK] (H-[dBip][dT][dS][dE][dY][dE][dS]K-OH; N-terminus and C-terminus assumed)"
7,23,"CC(C)C[C@@H](NC(=O)[C@@H](C)NC(=O)[C@@H](CCC(=O)O)NC(=O)[C@@H](Cc1ccc(O)cc1)NC(=O)[C@@H](CCC(=O)O)NC(=O)[C@@H](CO)NC(=O)[C@H](NC(=O)[C@@H](N)Cc1ccc(-c2ccccc2)cc1)[C@H](C)O)C(=O)N[C@@H](CCCCN)C(=O)N[C@@H](CCCCN)C(=O)O [Peptide 213.27, (Bip)tseyealKK] (H-[Bip][dT][dS][dE][dY][dE][dA][dL]KK-OH; N-terminus and C-terminus assumed)"
8,15.6,"CC(C)C[C@H](NC(=O)[C@@H](C)NC(=O)[C@@H](CCC(=O)O)NC(=O)[C@@H](Cc1ccc(O)cc1)NC(=O)[C@@H](CCC(=O)O)NC(=O)[C@@H](CO)NC(=O)[C@H](NC(=O)[C@@H](N)Cc1ccc(-c2ccccc2)cc1)[C@H](C)O)C(=O)N[C@@H](CCCCN)C(=O)N[C@@H](CCCCN)C(=O)O [Peptide 213.29, (Bip)tseyeaLKK] (H-[Bip][dT][dS][dE][dY][dE][dA]LKK-OH; N-terminus and C-terminus assumed)"

# Test system: rat model of ischemic nephropathy
# Test: Rat model of ischemic nephropathy (bilateral renal artery occlusion): GFR, urine flow, renal plasma flow, BUN/creatinine, histology
# Format: in vivo, Sprague-Dawley rats
# Conditions: 213.29 1 mg/kg iv bolus; fenoldopam 0.6 μg/kg iv bolus then 0.6 μg/kg/h
# Protocol: Bilateral clamping of the renal arteries for 30-60 minutes results in the […] of the kidneys and associated sequelae such as a dramatic decrease in glomerular filtration rate, urine output and tubular cell death. This model reproduces some important consequences of oligouric renal failure in humans. The efficacy of various 213.15 derivatives in reversing the renal damage was measured.
# Sprague-Dawley rats (250-300 g) were anesthetized and the jugular vein was canulated for infusion with the peptide or with saline. In addition, the carotid artery was canulated to measure the arterial blood pressure with a pressure transducer (Gould) and to collect blood samples. The urinary bladder was canulated to collect urine. After catheterization, an infusion (1.6 ml/hr) of a mixture of [^3H] inulin (8 μCi/hr), [^14C] aminohippuric acid (0.8 μCi/hr) and anesthetics (ketamine and xylazine; 9:1 w:w; 0.095 ml/ml) was started. The animals were allowed to stabilize for a further 40 minutes. Two urine samples were collected over 10 minute periods, (from 40 to 50 minutes, and from 50 to 60 minutes) to assess the stability of the basal GFR. Blood samples were collected at 45 and 55 minutes respectively. The left and right renal arteries were then clamped for a period of 60 minutes to induce an acute renal ischemia. After the ischemic period, the animals were treated with peptides, 213.19-213.30, (1 mg/kg iv bolus) or with saline via the jugular vein. Blood and urine samples were then collected every 20 minutes for an additional period of 2 hours. Glomerular filtration rates (GFR) and urine flow rates, (measured by the [^3H] inulin method) as well as renal plasma flow (measured by the [^14C] aminohippuric acid method), were determined at different times and averaged for a 60 minute (20-80 minutes following the drug administration) period.
# The efficacy of fenoldopam and 213.29, in improving kidney function in the rat model of ischemic nephropathy (described in Example 2) was compared. […]
Structure (SMILES),renal perfusion and GFR,urine output
"Oc1ccc(C2CNCCc3c2cc(O)c(O)c3Cl)cc1 (centres unmarked) [fenoldopam, Fenoldopam]",only 213.29 was able to improve renal perfusion and GFR significantly,increased urine output to a similar extent

# Same assay, conditions: after 72 hours; 213.29 1 mg/kg iv bolus; fenoldopam 0.6 μg/kg bolus then 0.6 μg/kg/h
row,Structure (SMILES),blood urea nitrogen (BUN) and serum creatinine levels
1,"Oc1ccc(C2CNCCc3c2cc(O)c(O)c3Cl)cc1 (centres unmarked) [fenoldopam, Fenoldopam]",equally efficacious in reducing BUN and creatinine levels
